Source: patent US11078496B2, “System for F-box hormone receptor regulated protein expression in mammalian cells” (ICAHN SCHOOL OF MEDICINE AT MOUNT SINAI, priority 2016, dated 2021)
Read-outs that look alike come from different tables or passages of the source.

What was measured:
[1] = test system: human ESCs; assay: mRNA-Seq of H9 hESCs treated with coronatine; type: cell-based; details: H9 cells, 50 μM coronatine, 2 days
[2] = test system: AID-fused proteins in mammalian cells; details: cited from earlier work

Row | Structure (SMILES) | effect on global gene expression patterns ([1]; mRNA-Seq) | genes with differential expression between coronatine and control samples ([1]; P<0.05 and fold change >2 in both replicates) | rapidity of auxin-dependent protein depletion ([2]; reported by Han et al.) [min] | rapidity of auxin-dependent protein depletion ([2]; reported by Holland et al.) [min] | rapidity of auxin-dependent protein depletion ([2]; reported by Lambrus et al.) [min] | rapidity of auxin-dependent protein depletion ([2]; reported by Rodriguez-Bravo et al.) [min]
1 | CC[C@H]1C=C(C(=O)N[C@@]2(C(=O)O)C[C@@H]2CC)[C@H]2CCC(=O)[C@H]2C1 [coronatine, Coronatine] | does not affect global gene expression patterns | only two genes | – | – | – | –
2 | O=C(O)Cc1c[nH]c2ccccc12 [auxin, indole-3-acetic acid] | – | – | ~90 | 60 to 100 | 10 to 30 | > 120
